Reference: patent US20230054194A1, “Methods of Treating Cancer” (ARIAGEN, INC., priority 2018, published 2023)

Tested on: CT26.WT
Test: Subcutaneous syngeneic CT26.WT colon carcinoma mouse model, ARI-001 with anti-mCTLA-4 antibody (Example 153)
Type: in vivo
Protocol: In this example, the in vivo anti-tumor efficacy of ARI-001, an antibody against mouse CTLA-4 (mCTLA-4), and a combination of the two agents was evaluated using the subcutaneous syngeneic CT26.WT (aka CT-26) colon carcinoma mouse model.
CT26.WT cells were obtained from the ATCC and grown in RPMI 1640 medium supplemented with 10% FBS at 37° C. in a 5% CO2 atmosphere. Female Envigo BALB/c mice (BALB/cANNHsd) of 5-6 weeks old were implanted subcutaneously in the right axilla (high) on Day 0 with 5.0×10^5 cells/mouse in 200 μl using a 27-gauge needle and syringe.
ARI-001 powder was dissolved in 100% DMSO to obtain a 106.67 mg/ml dosing formulation with a pH of 7.6. The dosing solution was stored at room temperature and protected from light. The anti-mCTLA-4 9D9 was obtained from BioXcell.
All mice were sorted into study groups based on caliper estimation of tumor burden. Each study group had ten mice. The mice were distributed to ensure that the mean tumor burden for all groups was within 10% of the overall mean tumor burden for the study population. Treatment began on Day 7 at an overall mean tumor burden of 89 mm^3 (range of group means, 87-91 mm^3). All mice were dosed according to individual body weight on the day of treatment (0.2 mL/20 g for anti-mCTLA-4 and vehicle (PBS), 30 μL/20 g for ARI-001 and vehicle (DMSO)). All agents were given to the mice intraperitoneally.
Tumor measurements were recorded three times weekly. Tumor burden (mm^3) was estimated from caliper measurements by the formula for the volume of a prolate ellipsoid assuming unit density as:
Tumor burden(mm^3)=(L×W^2)/2,
The primary endpoints used to evaluate efficacy at the group level were: tumor growth delay, increased time to progression (% ITP), median ΔT/ΔC, complete and partial tumor response, and the number of tumor-free survivors at the end of the study. Tumor growth delay for this experiment was evaluated at 750 mm^3. Time to progression study for this experiment was evaluated at 2,000 mm^3. This is the IACUC required tumor burden limit, and the time to euthanasia can be thought of as a surrogate for lifespan.
In this experiment, median ΔT/ΔC was evaluated when the median control tumor burden reached 1,000 mm^3 (Day 17). A mouse was considered a putative responder if it met at least one of the following criteria: complete regression of the tumor or being at least two standard deviations larger than the median time to progression of the control group. The following are the definitions of the efficacy parameters mentioned above: ΔC and ΔT are individual mouse endpoints that are calculated for each mouse as follows:
Median ΔT/ΔC is a group endpoint. It is calculated for each day of treatment as:
The results are presented as %. When the median ΔT/ΔC is negative (the median treated tumor burden is regressing), the median ΔT/ΔC is not reported and the Median % Regression is reported instead.
Time to Evaluation Size (TES)—TES is an individual mouse endpoint and it is expressed in days from tumor implant. It is the time it takes the tumor burden to reach a specified value, and it can be calculated from any method of evaluating tumor burden (caliper measurements, BLI, anatomical imaging, etc.). It is calculated by log-linear interpolation between the two closest data points that bracket the chosen tumor burden.
Time to Progression (TP)—Time to progression is a surrogate for lifespan, time on study, or lifespan. It is used for studies that involve IACUC mandated euthanasia of animals for excessive tumor burdens (even if the animals otherwise appear normal). The mandated tumor burden limit is tumor model dependent. TP data is analyzed by Kaplan Meier methods just as traditional life span data. The Time to Progression for an individual animal is the number of days between initiation of treatment and the death or required euthanasia of that animal. […]

## COC(=O)c1csc(C(=O)c2c[nH]c3ccccc23)n1 [ARI-001]
CT26.WT, ARI-001 160 mg/kg/inj., 9D9 10 mg/kg/inj.
  Incidence of putative responders: 70%
CT26.WT, ARI-001 160 mg/kg/inj., 9D9 10 mg/kg/inj., intraperitoneally
  Tumor Growth Delay: 2.9 days
Day 17, ARI-001 160 mg/kg/inj., 9D9 10 mg/kg/inj., intraperitoneally
  Day 17 Median ΔT/ΔC: 44%
Complete response
  CR: 0%
Mean body weight change during treatment, ARI-001 160 mg/kg/inj., 9D9 10 mg/kg/inj., intraperitoneally
  MBW Change: −8.3%
Median time to progression, 2,000 mm^3, relative to Group 1
  Increase in MTP: 40%
